# Patent US20240000724A1, “Compositions and Methods for Treatment or Prevention of Oral Mucositis” (PATHWAYS BIOSCIENCE, LLC, priority 2015, published 2024)
# Entries after “also recorded” stand apart in the source; their conditions may differ. Read-outs that look alike come from different tables or passages of the source.
# What was measured:
# HepG2 cells = experiment: Affymetrix PrimeView gene expression array of PB201-treated HepG2 cells; assay type: cell-based; conditions: Homo sapiens, 1.5 micrograms/mL, 18 hours
# Experimental: As an example of the cell protective mechanisms induced by PB201 treatment, gene upregulation in cells treated with PB201 was examined. Briefly, cultured HepG2 liver cells were treated with PB201 at 1.5 micrograms/mL concentration for 18 hours, then total RNA was extracted from the HepG2 cells by using the RNeasy Total RNA Isolation Kit (QIAGEN Inc. Valencia, California, USA). The concentration of each sample was determined based on the absorbance at 260 nm (A260). The purity of each sample was determined based on the ratio of A260 to A280. A range of 1.9-2.1 was considered adequately pure. The integrity of Total RNA samples was verified by Agilent 2200 Tape Station. Total RNA (250 ng) was converted to double-stranded cDNA (ds-cDNA) by using the cDNA synthesis kit (Affymetrix). An oligo-dT primer containing a T7 RNA polymerase promoter was utilized. The ds-cDNA was then purified and recovered by using purification beads (Affymetrix). Next, in vitro transcription was performed to generate biotin-labeled cRNA using a RNA Transcript Labeling Kit (Affymetrix). Biotin-labeled cRNA was purified using an RNeasy affinity column (Qiagen).
# To ensure optimal hybridization to the oligonucleotide array, the cRNA was fragmented. Fragmentation was performed such that the cRNA fragments are between 50-200 bases in length by incubating the cRNA at 94° C. for 35 min in a fragmentation buffer. The sample was then added to a hybridization solution containing 100 mM IVIES, 1 M Na+, and 20 mM EDTA in the presence of 0.01% Tween 20. The final concentration of the fragmented cRNA was […]. Hybridization was performed by incubating 200 uL of the sample to the Affymetrix GeneChip® PrimeView™ human gene expression array (Affymetrix Inc., Santa Clara, California, USA) at 45° C. for 16 hours using a GeneChip® Hybridization Oven 640 (Affymetrix).
# After hybridization, the hybridization solutions were removed and the arrays were washed and stained with Streptavidin-phycoerythrin using a GeneChip® Fluidics Station 450 (Affymetrix). Arrays were read at a resolution of 2.5 to 3 microns using the GeneChip Scanner 3000 (Affymetrix). Each gene was represented by the use of −11 probes per transcript and many control probes. The Command Console GeneChip software program was used to determine the intensity of expression for all genes on the array. For this experiment, fold-induction of genes by PB201 treatment of HepG2 cells was calculated compared to the average intensity observed in control HepG2 cells in culture solution without any added stimulus such as PB201.
# [1] = Aqueous solubility / visual dissolution in PBS with and without HPBCD; assay type: physicochemical; conditions: for Aqueous solubility alone: water or aqueous solutions, no solubility enhancer
# Experimental: (§1) In this example, approaches were used to increase the aqueous distribution of the otherwise relatively insoluble 1,3-diphenyl-1,3-propanedione (DBM) by adding 2-hydroxypropyl beta-cyclodextrin (HPBCD) at a molar ratio (DBM:HPBCD) of 1:3. […] To verify its presence in the aqueous solutions, the samples were tested for activity of PB201 using HepG2-ARE promoter/reporter cells, which are responsive to PB201 and other Nrf2-activators by promoting the expression of luciferase.
# [2] = system: Nrf2 (HepG2-ARE promoter/reporter cells); experiment: HepG2-ARE promoter/reporter cells, Nrf2 activation (chemiluminescent signal, RLU); assay type: cell-based, human; conditions: for Nrf2 activation level: 4.2 ug/mL, unstimulated baseline 7182 RLU; for Nrf2 activation (chemiluminescent signal, RLU): HepG2-ARE cells
# Experimental: as §1
# Furthermore, the Nrf2 activation by the 1,3-diphenyl-1,3-propanedione, with or without solubility enhancing agents such as HPBCD, is temporary, not permanent, and can be repeated; for example the Nrf2 activation by 4.2 ug/mL 1,3-diphenyl-1,3-propanedione decreases from its level at 17 hours (72,949 RLU) to 24 hours (47,121 RLU) after stimulation, and is nearly back to its baseline, unstimulated levels (7182 RLU) by 48 hours (11,659 RLU). Similarly, other types of agents can be utilized to increase aqueous levels of 1,3-diphenyl-1,3-propanedione including, but not limited to, surfactants, liposomes, amphiphiles, emulsifiers, and complexing agents to make solutions or suspensions.
# [3] = system: Interleukin-8 (IL-8) release, primary human lung epithelial cells; experiment: IL-8 release from primary human lung epithelial cells stimulated with cigarette smoke extract; assay type: cell-based; conditions: primary human lung epithelial cells exposed to CSE for 7 days, vs untreated CSE-stimulated cells
# Source text: As an example of the cell protective mechanisms induced by PB201 treatment, release of the proinflammatory cytokine Interleukin-8 (IL-8) was attenuated in primary human lung epithelial cells treated with PB201 compared to untreated cells when both were stimulated with cigarette smoke extract (FIG. 9).
# oral mucositis = experiment: Oral mucositis in a mammal receiving radiation treatment or chemotherapy, topical oral administration; assay type: in vivo; conditions: topical within oral cavity daily, vs untreated or placebo
# Experimental: A formulation of PB201 was administered topically within the oral cavity daily to a mammal receiving radiation treatment or chemotherapy that can cause oral mucositis as a side effect. PB201 administration decreased the frequency and/or severity of the oral mucositis as compared to untreated or placebo treated subjects.
structure (smiles),measurement,setting,value
"O=C(CC(=O)c1ccccc1)c1ccccc1 [PB201, 1,3-diphenyl-1,3-propanedione]",fold induction at 1.5 µg/mL,"HepG2 cells; vs control HepG2, read-out: Fold induction by PB201: AGPAT9",2.46
same,fold induction at 1.5 µg/mL,"HepG2 cells; vs control HepG2, read-out: Fold induction by PB201: AKR1B10///AKR1B15",5.85
same,fold induction at 1.5 µg/mL,"HepG2 cells; vs control HepG2, read-out: Fold induction by PB201: AKR1B15",4.1
same,fold induction at 1.5 µg/mL,"HepG2 cells; vs control HepG2, read-out: Fold induction by PB201: AKR1C1",4.97
same,fold induction at 1.5 µg/mL,"HepG2 cells; vs control HepG2, read-out: Fold induction by PB201: AKR1C2///LOC100653286",6.56
same,fold induction at 1.5 µg/mL,"HepG2 cells; vs control HepG2, read-out: Fold induction by PB201: AQP3",3
same,fold induction at 1.5 µg/mL,"HepG2 cells; vs control HepG2, read-out: Fold induction by PB201: BHMT2",3.8
same,fold induction at 1.5 µg/mL,"HepG2 cells; vs control HepG2, read-out: Fold induction by PB201: CCPG1///DYX1C1-CCPG1",2.51
same,fold induction at 1.5 µg/mL,"HepG2 cells; vs control HepG2, read-out: Fold induction by PB201: CYP4F3",2.46
same,fold induction at 1.5 µg/mL,"HepG2 cells; vs control HepG2, read-out: Fold induction by PB201: CYP4F11",4.43
same,fold induction at 1.5 µg/mL,"HepG2 cells; vs control HepG2, read-out: Fold induction by PB201: EID3",4.18
same,fold induction at 1.5 µg/mL,"HepG2 cells; vs control HepG2, read-out: Fold induction by PB201: FOS",2.91
same,fold induction at 1.5 µg/mL,"HepG2 cells; vs control HepG2, read-out: Fold induction by PB201: FTH1",2.62
same,fold induction at 1.5 µg/mL,"HepG2 cells; vs control HepG2, read-out: Fold induction by PB201: GCLM",4.03
same,fold induction at 1.5 µg/mL,"HepG2 cells; vs control HepG2, read-out: Fold induction by PB201: GLA",2.59
same,fold induction at 1.5 µg/mL,"HepG2 cells; vs control HepG2, read-out: Fold induction by PB201: GSTA1///GSTA2",6.99
same,fold induction at 1.5 µg/mL,"HepG2 cells; vs control HepG2, read-out: Fold induction by PB201: HMOX1",3.64
same,fold induction at 1.5 µg/mL,"HepG2 cells; vs control HepG2, read-out: Fold induction by PB201: KYNU",3.9
same,fold induction at 1.5 µg/mL,"HepG2 cells; vs control HepG2, read-out: Fold induction by PB201: MLLT11",2.71
same,fold induction at 1.5 µg/mL,"HepG2 cells; vs control HepG2, read-out: Fold induction by PB201: OSGIN1",3.18
same,fold induction at 1.5 µg/mL,"HepG2 cells; vs control HepG2, read-out: Fold induction by PB201: PANX2",2.88
same,fold induction at 1.5 µg/mL,"HepG2 cells; vs control HepG2, read-out: Fold induction by PB201: PTGR1",4.79
same,fold induction at 1.5 µg/mL,"HepG2 cells; vs control HepG2, read-out: Fold induction by PB201: SLC16A6",3.8
same,fold induction at 1.5 µg/mL,"HepG2 cells; vs control HepG2, read-out: Fold induction by PB201: SQSTM1",2.84
same,fold induction at 1.5 µg/mL,"HepG2 cells; vs control HepG2, read-out: Fold induction by PB201: SRXN1",2.8
same,fold induction at 1.5 µg/mL,"HepG2 cells; vs control HepG2, read-out: Fold induction by PB201: TEX19",3
same,fold induction at 1.5 µg/mL,"HepG2 cells; vs control HepG2, read-out: Fold induction by PB201: TRPV3",3.51
same,fold induction at 1.5 µg/mL,"HepG2 cells; vs control HepG2, read-out: Fold induction by PB201: TUBA4A",2.55
same,Visual dissolution,[1]; 5 mg in 1 mL PBS with 93 mg HPBCD (3:1 mole ratio),visually dissolved
same,Change of solubility in aqueous solution by 2-hydroxypropyl beta-cyclodextrin,"[1]; HPBCD added, DBM:HPBCD 1:3",greatly increased
same,Aqueous solubility alone,[1],nearly insoluble
same,Aqueous solubility alone,"[1]; listed as 1,3-diphenyl-1,3-propanedione",low aqueous solubility
same,Nrf2 activation level,[2]; 17 hours after stimulation,"72,949 RLU"
same,Nrf2 activation level,[2]; 48 hours after stimulation,"11,659 RLU"
same,"Nrf2 activation (chemiluminescent signal, RLU)",[2]; PB201 in HPBCD/PBS,activated
same,"Nrf2 activation (chemiluminescent signal, RLU)",[2]; PB201 in PBS alone,not by PB201 in PBS alone
same,IL-8 release,[3],significantly decreased; also recorded: attenuated
same,Frequency and/or severity of oral mucositis,oral mucositis,decreased
